From ChEMBL document CHEMBL1144196, “Carbonic anhydrase activators: kinetic and X-ray crystallographic study for the interaction of D- and L-tryptophan with the mammalian isoforms I-XIV” (Bioorg Med Chem, 2008)

Legend:
[1] = target: Carbonic anhydrase 2 (Homo sapiens) (UniProt P00918); test: Activation of human recombinant CA2 after […] by stopped-flow CO2 hydration assay
[2] = target: Carbonic anhydrase 5A, mitochondrial (Homo sapiens) (UniProt P35218); test: Activation of human recombinant CA5A after 15 mins by stopped-flow CO2 hydration assay
[3] = target: Carbonic anhydrase 5B, mitochondrial (Homo sapiens) (UniProt Q9Y2D0); test: Activation of human recombinant CA5B after 15 mins by stopped-flow CO2 hydration assay
[4] = target: Carbonic anhydrase 7 (Homo sapiens) (UniProt P43166); test: Activation of human recombinant CA7 after 15 mins by stopped-flow CO2 hydration assay
[5] = target: Carbonic anhydrase 9 (Homo sapiens) (UniProt Q16790); test: Activation of human recombinant CA9 after 15 mins by stopped-flow CO2 hydration assay
[6] = target: Carbonic anhydrase 12 (Homo sapiens) (UniProt O43570); test: Activation of human recombinant CA12 after 15 mins by stopped-flow CO2 hydration assay
[7] = target: Carbonic anhydrase 13 (Mus musculus) (UniProt Q9D6N1); test: Activation of mouse recombinant CA13 after 15 mins by stopped-flow CO2 hydration assay
[8] = target: Carbonic anhydrase 14 (Homo sapiens) (UniProt Q9ULX7); test: Activation of human recombinant CA14 after 15 mins by stopped-flow CO2 hydration assay
Chain of Carbonic anhydrase 14 (Homo sapiens) (Q9ULX7 whole entry): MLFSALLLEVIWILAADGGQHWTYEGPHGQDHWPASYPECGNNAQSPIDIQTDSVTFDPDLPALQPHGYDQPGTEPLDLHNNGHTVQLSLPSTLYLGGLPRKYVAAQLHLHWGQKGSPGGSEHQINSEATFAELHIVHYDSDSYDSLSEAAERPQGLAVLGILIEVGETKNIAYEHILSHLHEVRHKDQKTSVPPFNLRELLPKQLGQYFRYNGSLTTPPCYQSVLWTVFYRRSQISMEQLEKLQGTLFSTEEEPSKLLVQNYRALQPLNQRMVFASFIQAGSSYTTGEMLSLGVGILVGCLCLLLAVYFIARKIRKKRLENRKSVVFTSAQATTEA

Chain of Carbonic anhydrase 5A, mitochondrial (Homo sapiens) (P35218 whole entry): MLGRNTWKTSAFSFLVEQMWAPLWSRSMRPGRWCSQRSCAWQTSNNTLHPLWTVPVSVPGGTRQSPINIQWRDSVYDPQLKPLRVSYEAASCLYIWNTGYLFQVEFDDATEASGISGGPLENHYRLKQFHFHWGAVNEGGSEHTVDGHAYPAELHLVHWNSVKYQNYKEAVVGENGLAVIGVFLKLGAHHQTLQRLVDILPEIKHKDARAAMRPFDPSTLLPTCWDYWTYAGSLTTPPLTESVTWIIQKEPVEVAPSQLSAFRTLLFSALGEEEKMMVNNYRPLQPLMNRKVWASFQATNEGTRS
Chain of Carbonic anhydrase 12 (Homo sapiens) (O43570 whole entry): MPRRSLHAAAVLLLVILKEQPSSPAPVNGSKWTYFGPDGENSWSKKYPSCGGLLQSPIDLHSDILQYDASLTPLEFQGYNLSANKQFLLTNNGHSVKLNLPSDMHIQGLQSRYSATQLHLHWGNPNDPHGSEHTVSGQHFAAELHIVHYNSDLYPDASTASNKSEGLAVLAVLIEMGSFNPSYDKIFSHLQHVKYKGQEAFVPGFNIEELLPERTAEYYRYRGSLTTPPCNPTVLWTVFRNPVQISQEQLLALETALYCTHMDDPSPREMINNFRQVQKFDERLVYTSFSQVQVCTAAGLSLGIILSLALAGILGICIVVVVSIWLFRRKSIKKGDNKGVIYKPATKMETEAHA
Chain of Carbonic anhydrase 7 (Homo sapiens) (P43166 whole entry): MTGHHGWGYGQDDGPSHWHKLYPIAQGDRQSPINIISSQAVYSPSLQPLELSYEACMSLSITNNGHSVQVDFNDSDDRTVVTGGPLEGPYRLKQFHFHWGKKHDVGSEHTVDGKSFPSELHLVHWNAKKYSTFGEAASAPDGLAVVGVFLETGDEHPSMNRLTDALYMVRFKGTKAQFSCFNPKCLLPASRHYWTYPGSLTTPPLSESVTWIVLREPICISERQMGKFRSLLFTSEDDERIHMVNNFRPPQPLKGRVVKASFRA
Chain of Carbonic anhydrase 13 (Mus musculus) (Q9D6N1 whole entry, looked up): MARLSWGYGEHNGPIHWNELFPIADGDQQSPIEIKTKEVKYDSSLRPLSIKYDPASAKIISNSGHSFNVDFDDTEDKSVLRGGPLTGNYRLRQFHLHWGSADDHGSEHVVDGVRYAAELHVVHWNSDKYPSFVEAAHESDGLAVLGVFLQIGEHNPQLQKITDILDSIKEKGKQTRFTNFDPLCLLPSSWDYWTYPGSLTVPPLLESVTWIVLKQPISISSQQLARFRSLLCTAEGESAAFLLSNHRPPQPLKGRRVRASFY
Chain of Carbonic anhydrase 5B, mitochondrial (Homo sapiens) (Q9Y2D0 whole entry): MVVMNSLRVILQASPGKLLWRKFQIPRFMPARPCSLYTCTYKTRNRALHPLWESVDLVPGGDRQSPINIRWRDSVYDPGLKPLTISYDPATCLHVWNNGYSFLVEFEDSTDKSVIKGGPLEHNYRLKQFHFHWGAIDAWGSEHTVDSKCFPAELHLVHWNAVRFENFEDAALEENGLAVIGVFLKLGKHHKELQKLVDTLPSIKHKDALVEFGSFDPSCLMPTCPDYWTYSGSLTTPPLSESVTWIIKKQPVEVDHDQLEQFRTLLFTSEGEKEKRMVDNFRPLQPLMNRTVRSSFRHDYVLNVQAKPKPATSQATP

Row | Ka [1] [µM] | Ka [2] [µM] | Ka [3] [µM] | Ka [4] [µM] | Ka [5] [µM] | Ka [6] [µM] | Ka [7] [µM] | Ka [8] [µM] | SMILES
1 | 1.13 | 1.13 | 0.89 | 57 | 37 | 26 | 16 | 16 | N[C@@H](Cc1c[nH]c2ccccc12)C(=O)O
2 | 0.37 | 1.24 | 1.35 | 39 | 43 | 28 | 0.81 | 18 | N[C@H](Cc1c[nH]c2ccccc12)C(=O)O
3 | – | 63 | – | 60 | 0.87 | 0.41 | – | 36 | CNC[C@@H](O)c1ccc(O)c(O)c1
